As usually defined, the IC50 is the concentration at which inhibition is half-maximal.

Series [1] concerns Trypanosoma brucei brucei. Nature of the series: Antitrypanosomal activity against bloodstream stage of Trypanosoma brucei brucei 93 assessed as parasite growth inhibition at 1 ug/ml after 72 hrs by resazurin reduction assay relative to control. Conditions: Trypanosoma brucei, 93, 72 h; read-out: GI. The series is classed as functional.
Series [2] in a line: Safety index, ratio of IC50 for african green monkey Vero cells to IC50 for bloodstream stage of Trypanosoma brucei brucei 93. The series is classed as toxicity, cell-based. To be noted: read-out: Ratio IC50.
For series [3], the system named is Plasmodium falciparum. Kind of series: Antiplasmodial activity against chloroquine-resistant Plasmodium falciparum FcB1/Columbia infected in human erythrocytes assessed as parasite growth inhibition at 10 ug/ml after 24 hrs by [3H]-hypoxanthine incorporation assay relative to control. The class given is functional. Conditions: read-out: GI.
The nature of series [4]: Cytotoxicity against african green monkey Vero cells assessed as growth inhibition at 10^-5 M after 72 hrs by MTS assay relative to control. The class given is cell-based. Conditions: chlorocebus sabaeus, read-out: GI. (In general: Tetrazolium assays rely on reduction of a dye to a coloured formazan, in cell work by metabolically active cells.)
Series [5] is described as follows: Safety index, ratio of IC50 for african green monkey Vero cells to IC50 for promastigote stage of Leishmania donovani LV9. The series is classed as toxicity, cell-based. Conditions: read-out: Ratio IC50.
The next series relates to Vero. Kind of series: Cytotoxicity against african green monkey Vero cells assessed as growth inhibition after 72 hrs by MTS assay. The class given is cell-based. To be noted: Chlorocebus sabaeus.
Series [6] relates to Plasmodium falciparum. Nature of the series: Antiplasmodial activity against chloroquine-resistant Plasmodium falciparum FcB1/Columbia infected in human erythrocytes assessed as parasite growth inhibition after 24 hrs by [3H]-hypoxanthine incorporation assay. The series is classed as functional, organism-based.
Series [7] in a line: Safety index, ratio of IC50 for african green monkey Vero cells to IC50 for chloroquine-resistant Plasmodium falciparum FcB1/Columbia infected in human erythrocytes. The class given is toxicity, cell-based. Conditions: read-out: Ratio IC50.
The test system of series [8] is Plasmodium falciparum. Nature of the series: Antiplasmodial activity against chloroquine-resistant Plasmodium falciparum FcB1/Columbia infected in human erythrocytes assessed as parasite growth inhibition at 1 ug/ml after 24 hrs by [3H]-hypoxanthine incorporation assay relative to control. The series is classed as functional. Conditions: read-out: GI.
The next series deals with Leishmania donovani. Nature of the series: Leishmanicidal activity against promastigote stage of Leishmania donovani LV9 assessed as cell viability by MTT assay. The class given is functional, organism-based.
Series [9] deals with Trypanosoma brucei brucei. Kind of series: Antitrypanosomal activity against bloodstream stage of Trypanosoma brucei brucei 93 assessed as parasite growth inhibition at 50 ug/ml after 72 hrs by resazurin reduction assay relative to control. The class given is functional. To be noted: Trypanosoma brucei, 93, 72 h; read-out: GI. For orientation: Resazurin is reduced to fluorescent resorufin, in cell work by metabolically active cells.

For series [10], the system named is Trypanosoma brucei brucei. Kind of series: Antitrypanosomal activity against bloodstream stage of Trypanosoma brucei brucei 93 assessed as parasite growth inhibition after 72 hrs by resazurin reduction assay. Conditions: Trypanosoma brucei, 93, 72 h. The class given is functional, organism-based.
Series [11] has as its system Trypanosoma brucei brucei. Nature of the series: Antitrypanosomal activity against bloodstream stage of Trypanosoma brucei brucei 93 assessed as parasite growth inhibition at 10 ug/ml after 72 hrs by resazurin reduction assay relative to control. The series is classed as functional. To be noted: Trypanosoma brucei, 93, 72 h; read-out: GI.
Series [12] concerns Plasmodium falciparum. Kind of series: Antiplasmodial activity against chloroquine-resistant Plasmodium falciparum FcB1/Columbia infected in human erythrocytes assessed as parasite growth inhibition at 50 ug/ml after 24 hrs by [3H]-hypoxanthine incorporation assay relative to control. The class given is functional. Conditions: read-out: GI.

Consider `CC(C)=CCC[C@]1(C)[C@@H](CC=C(C)C)C[C@]2(CC=C(C)C)C(=O)[C@@]1(CC=C(C)C)C(=O)C(C(=O)c1ccc(OCCC3OCCO3)c(OCCC3OCCO3)c1)=C2O`, for which the inhibition of growth at 1 µg/mL in series [1] was 44.8%; in the series with Plasmodium falciparum [8], 17.6%. Moreover, the selectivity ratio in series [2] worked out at 22.8; in [5] it was 1.2; in series [7] it was 20.8. The inhibition of growth at 10 µg/mL with Plasmodium falciparum [3] is 94.1%; in series [11] it was 96.7%. Moreover, the inhibition at 72 h, 10 µM in [4] was determined as 29%. The 50% inhibitory concentration (IC50) in the series with Vero is 41.6 µM; in the series with Plasmodium falciparum [6], 2 µM; in the series with Leishmania donovani it was 34.3 µM; in series [10], 1.83 µM. Also, the inhibition of growth at 50 µg/mL stood at 95% in [9] and 99.6% in the series with Plasmodium falciparum [12].

Consider `CC(=O)Oc1cc(C(=O)C2=C(O)[C@]3(CC=C(C)C)C[C@H](CC=C(C)C)[C@@](C)(CCC=C(C)C)[C@](CC=C(C)C)(C2=O)C3=O)ccc1O`, for which the results for the inhibition of growth at 1 µg/mL (in [1]; in the series with Plasmodium falciparum [8]) were 47% and 9%, respectively. Moreover, the selectivity ratio in [2] worked out at 2.3; in series [5] it was 0.8; in series [7], 0.9. The values for the inhibition of growth at 10 µg/mL (in the series with Plasmodium falciparum [3]; in series [11]) were 96.7% and 97.3%, respectively. Moreover, the IC50 in the series with Vero came out at 4.12 µM; with Plasmodium falciparum [6], 4.36 µM; in the series on Leishmania donovani it was 5.04 µM; in series [10] it was 1.78 µM. For the same molecule, the inhibition of growth at 50 µg/mL in series [9] worked out at 95.5%; in the series on Plasmodium falciparum [12] it was 99.1%.

With `CC(=O)Oc1ccc(C(=O)C2=C(O)[C@]3(CC=C(C)C)C[C@H](CC=C(C)C)[C@@](C)(CCC=C(C)C)[C@](CC=C(C)C)(C2=O)C3=O)cc1OC(C)=O`, the values for the inhibition of growth at 1 µg/mL (in series [1]; in the series with Plasmodium falciparum [8]) were 38.5% and 14.9%, respectively. Moreover, the selectivity ratio in series [2] turned out to be 1.3; in series [7] it was 1.1. Also, the inhibition of growth at 10 µg/mL in the series on Plasmodium falciparum [3] is 97.5%; in series [11] it was 97.2%. In addition, the half-inhibitory concentration (IC50) with Vero stood at 3.77 µM; in the series with Plasmodium falciparum [6], 3.63 µM; in series [10], 2.95 µM. For the same molecule, the inhibition of growth at 50 µg/mL in series [9] was determined as 93.3%; in the series on Plasmodium falciparum [12] it was 99.7%.

For `CCCC(=O)Oc1ccc(C(=O)C2=C(O)[C@]3(CC=C(C)C)C[C@H](CC=C(C)C)[C@@](C)(CCC=C(C)C)[C@](CC=C(C)C)(C2=O)C3=O)cc1OC(=O)CCC`, the inhibition of growth at 1 µg/mL was 35% in [1] and -0.82% in the series on Plasmodium falciparum [8]. Also, the figures for the selectivity ratio in series [2], in [5] and in series [7] were 3, 0.6 and 1.6, respectively. For the same molecule, the inhibition of growth at 10 µg/mL in the series on Plasmodium falciparum [3] came out at 96.5%; in [11] it was 96.2%. The IC50 was found to be 7.9 µM in the series with Vero, 5.06 µM in the series on Plasmodium falciparum [6], 13.3 µM with Leishmania donovani and 2.65 µM in [10]. Further, the inhibition of growth at 50 µg/mL in series [9] was found to be 94.9%; with Plasmodium falciparum [12], 99.7%.

Take `CC(C)=CCC[C@]1(C)[C@@H](CC=C(C)C)C[C@]2(CC=C(C)C)C(=O)[C@@]1(CC=C(C)C)C(=O)C(C(=O)c1ccc(OC(=O)C(C)(C)C)c(OC(=O)C(C)(C)C)c1)=C2O`: the inhibition of growth at 1 µg/mL is 42.9% in [1] and 4.48% in the series with Plasmodium falciparum [8]. Further, the results for the selectivity ratio in series [2] and in series [5] were 11.5 and under 1, respectively. Besides, the figures for the inhibition of growth at 10 µg/mL (in the series with Plasmodium falciparum [3]; in [11]) were 27.2% and 91.2%, respectively. Besides, the inhibition at 72 h, 10 µM in series [4] was determined as 13%. Also, the results for the IC50 (with Vero; with Leishmania donovani; in [10]) were 100 µM, over 100 µM and 8.66 µM, respectively. The inhibition of growth at 50 µg/mL is 96.4% in [9] and 0.5% in the series with Plasmodium falciparum [12].

For `COc1ccc(C(=O)C2=C(O)[C@]3(CC=C(C)C)C[C@H](CC=C(C)C)[C@@](C)(CCC=C(C)C)[C@](CC=C(C)C)(C2=O)C3=O)cc1O` [14-O-METHYL-GUTTIFERONE A], the results for the inhibition of growth at 1 µg/mL (in [1]; in the series on Plasmodium falciparum [8]) were 85.3% and 10.7%, respectively. Also, the results for the selectivity ratio in [2], in [5] and in [7] were 8.1, 1.2 and 2.6, respectively. Further, the figures for the inhibition of growth at 10 µg/mL (in the series on Plasmodium falciparum [3]; in [11]) were 75.2% and 96.3%, respectively. The half-maximal inhibitory concentration (IC50) with Vero came to 11.5 µM; in the series on Plasmodium falciparum [6] it was 4.46 µM; with Leishmania donovani, 9.4 µM; in series [10], 1.42 µM. The inhibition of growth at 50 µg/mL in series [9] is 92.8%; in the series with Plasmodium falciparum [12], 98.9%.

The record behind these values is ChEMBL document CHEMBL2401618 (Eur J Med Chem, 2013).
